The text below walks through data of ChEMBL document CHEMBL1128646, “The effect of Pyrrolo[3,4-c]carbazole derivatives on spinal cord ChAT activity” (Bioorg Med Chem Lett, 1995).

Assay [1] deals with T1, Choline O-acetyltransferase (Rattus norvegicus) (UniProt P32738).
T1 sequence (whole entry): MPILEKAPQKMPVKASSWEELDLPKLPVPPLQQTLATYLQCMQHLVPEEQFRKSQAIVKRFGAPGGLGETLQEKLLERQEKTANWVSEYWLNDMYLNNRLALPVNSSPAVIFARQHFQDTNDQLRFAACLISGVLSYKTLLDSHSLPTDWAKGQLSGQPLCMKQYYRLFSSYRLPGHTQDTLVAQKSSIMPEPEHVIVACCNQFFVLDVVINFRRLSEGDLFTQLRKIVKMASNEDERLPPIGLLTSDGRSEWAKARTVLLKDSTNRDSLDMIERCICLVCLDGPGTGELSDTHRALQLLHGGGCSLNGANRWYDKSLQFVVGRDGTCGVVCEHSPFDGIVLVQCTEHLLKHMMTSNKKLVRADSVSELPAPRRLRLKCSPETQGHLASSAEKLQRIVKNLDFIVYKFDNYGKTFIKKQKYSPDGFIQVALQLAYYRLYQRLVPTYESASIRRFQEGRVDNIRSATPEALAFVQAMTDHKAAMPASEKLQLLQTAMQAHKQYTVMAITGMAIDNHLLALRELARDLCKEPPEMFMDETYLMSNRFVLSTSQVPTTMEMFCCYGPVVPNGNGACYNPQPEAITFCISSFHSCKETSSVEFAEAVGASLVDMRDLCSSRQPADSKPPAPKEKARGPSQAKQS
The assay can be described thus: Compound was tested in vitro for choline acetyltransferase (ChAT) activity (maximal ChAT stimulation) in embryonic rat spinal cord cultures at a concentration of 10 uM; inactive.

For assay [2], the target named is T1, Choline O-acetyltransferase (Rattus norvegicus). Put plainly: Compound was tested in vitro for choline acetyltransferase (ChAT) activity (maximal ChAT stimulation) in embryonic rat spinal cord cultures at a concentration of 1 uM. The class given is tissue-based.
For assay [3] the target is unchanged. The assay can be described thus: Compound was tested in vitro for choline acetyltransferase (ChAT) activity (maximal ChAT stimulation) in embryonic rat spinal cord cultures at a concentration of 10 uM; Inactive. The format is tissue-based.
Assay [4] shares this target. The assay can be described thus: Compound was tested in vitro for choline acetyltransferase (ChAT) activity (maximal ChAT stimulation) in embryonic rat spinal cord cultures at a concentration of 10 uM. The format is tissue-based.
Assay [5] shares this target. The assay can be described thus: Compound was tested in vitro for choline acetyltransferase (ChAT) activity (maximal ChAT stimulation) in embryonic rat spinal cord cultures at a concentration of 0.300 uM. The class given is tissue-based.

The source made the active and inactive calls. The calls are words filed in the database; no cut-off is given here.

On to `O=C1NCc2c1c(-c1ccccc1)cc1[nH]c3ccccc3c21`, for which, in assay [1], the Control entry is “inactive”.

On to `O=C1NCc2c(-c3ccccc3)cc3[nH]c4ccc(Br)cc4c3c21`, for which, in assay [2], the Control turned out to be 146%.

`O=C1NCc2c1c1c3ccccc3[nH]c1c1[nH]c3ccccc3c21` returned a Control in assay [2] of 162%.

In the case of `CN1Cc2c(-c3ccccc3)cc3c(c2C1=O)c1ccccc1n3C`, in assay [3], the Control result was “inactive”.

As to `O=C1NCc2c(-c3ccccc3)cc3[nH]c4ccc(/C=C/c5ccccc5)cc4c3c21`, in assay [1], the Control result is “inactive”.

On to `Cn1c2ccccc2c2c3c(c(-c4ccccc4)cc21)CNC3=O`, for which, in assay [4], the Control is 159%.

`COC(=O)[C@]1(O)C[C@@H]2O[C@@]1(C)n1c3ccccc3c3c4c(c5c6ccccc6n2c5c31)C(=O)NC4` came in with a Control in assay [5] of 186%.

With `CC(C)(C)OC(=O)/C=C/c1ccc2[nH]c3cc(-c4ccccc4)c4c(c3c2c1)C(=O)NC4`, the Control entry in assay [1] was “inactive”.

`O=C1NCc2c(-c3ccccc3)cc3[nH]c4ccccc4c3c21` registered a Control in assay [4] of 167%.
